Data on twelve compounds can be found in BindingDB's records for doi:10.1016/j.ejmech.2009.09.045 (Sri Venkateswara University, 2010).

For the test, the target named is T1, Catalase (Rattus norvegicus, UniProt P04762).
T1 sequence (P04762 whole entry): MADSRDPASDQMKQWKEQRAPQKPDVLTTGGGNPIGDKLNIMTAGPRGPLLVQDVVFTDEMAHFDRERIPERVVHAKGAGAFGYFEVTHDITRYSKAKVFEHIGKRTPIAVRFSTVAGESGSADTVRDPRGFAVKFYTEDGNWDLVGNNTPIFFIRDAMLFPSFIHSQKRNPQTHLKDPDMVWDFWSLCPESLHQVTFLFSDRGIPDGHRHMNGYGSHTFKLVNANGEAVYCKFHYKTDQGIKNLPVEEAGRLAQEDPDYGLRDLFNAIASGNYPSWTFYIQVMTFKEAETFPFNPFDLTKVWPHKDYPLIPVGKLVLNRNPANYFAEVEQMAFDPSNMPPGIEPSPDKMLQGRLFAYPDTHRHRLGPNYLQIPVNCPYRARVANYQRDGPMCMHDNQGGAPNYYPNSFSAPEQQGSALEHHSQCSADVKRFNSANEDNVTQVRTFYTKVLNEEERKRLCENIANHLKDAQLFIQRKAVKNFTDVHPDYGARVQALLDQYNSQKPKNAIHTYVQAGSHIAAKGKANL
The experiment in a line: Inhibition of catalase in Wistar rat brain.

The EC50 is the concentration needed to bring the measured effect to its halfway point. A lower EC50 goes with higher potency in that assay.

On to `COc1ccc2c3c1O[C@H]1C[C@@H](OP(=O)(OCCO)N(CCCl)CCCl)C=C[C@@]31CCN(C)C2` (some centres not stated), for which the EC50 was found to be 4.12 µM. This lies in the single-digit micromolar range. To `COc1ccc2c3c1O[C@H]1C[C@@H](OP(=O)(NCCO)N(CCCl)CCCl)C=C[C@@]31CCN(C)C2` (some centres not stated) belongs 2.84 µM; to `COc1ccc2c3c1O[C@H]1C[C@@H](OP(=O)(SCCO)N(CCCl)CCCl)C=C[C@@]31CCN(C)C2` (some centres not stated), 3.02 µM; to `COc1ccc2c3c1O[C@H]1C[C@@H](OP(=O)(NCCN)N(CCCl)CCCl)C=C[C@@]31CCN(C)C2` (some centres not stated), 5.11 µM.

Consider `COc1ccc2c3c1O[C@H]1C[C@@H](OP(=O)(NCCO)Oc4ccc([N+](=O)[O-])cc4)C=C[C@@]31CCN(C)C2` (some centres not stated), for which the EC50 worked out at 9.29 µM.

Regarding `COc1ccc2c3c1O[C@H]1C[C@@H](OP(=O)(NCCN)Oc4ccc([N+](=O)[O-])cc4)C=C[C@@]31CCN(C)C2` (some centres not stated), the response was half-maximal at 3.41 µM (EC50). For `COc1ccc2c3c1O[C@H]1C[C@@H](OP(=O)(OCCO)Oc4ccc([N+](=O)[O-])cc4)C=C[C@@]31CCN(C)C2` (some centres not stated) the value was 6.15 µM. For `COc1ccc2c3c1O[C@H]1C[C@@H](OP(=O)(OP(=O)(O)O)N(CCCl)CCCl)C=C[C@@]31CCN(C)C2` (some centres not stated) the value was 3.81 µM; for `COc1ccc2c3c1O[C@H]1C[C@@H](OP(=O)(Oc4ccc([N+](=O)[O-])cc4)SCCO)C=C[C@@]31CCN(C)C2` (some centres not stated), 7.74 µM; for `COc1ccc2c3c1O[C@H]1C[C@@H](OP(=O)(Oc4ccc([N+](=O)[O-])cc4)OP(=O)(O)O)C=C[C@@]31CCN(C)C2` (some centres not stated), 5.13 µM. To `Cc1c(C)c2c(c(C)c1O)CC[C@@](C)(CCC[C@H](C)CCC[C@H](C)CCCC(C)C)O2` [CHEBI:18145] belongs 3.43 µM; to `COc1ccc2c3c1O[C@H]1C[C@@H](O)C=C[C@@]31CCN(C)C2` [galantamine], 17.6 µM.
